ChEMBL document CHEMBL3758169, “4-Aminoindazolyl-dihydrofuro[3,4-d]pyrimidines as non-covalent inhibitors of mutant epidermal growth factor receptor tyrosine kinase” (Bioorg Med Chem Lett, 2016)

How the values were obtained:
[1] = target: Serine/threonine-protein kinase MARK2 (Homo sapiens) (UniProt Q7KZI7); assay: Inhibition of MARK2 (unknown origin) at 100 nM
[2] = target: Mitogen-activated protein kinase kinase kinase 3 (Homo sapiens) (UniProt Q99759); assay: Inhibition of MEKK3 (unknown origin) at 100 nM
[3] = target: MAP kinase-interacting serine/threonine-protein kinase 2 (Homo sapiens) (UniProt Q9HBH9); assay: Inhibition of MKNK2 (unknown origin) at 100 nM
[4] = target: Serine/threonine-protein kinase MRCK alpha (Homo sapiens) (UniProt Q5VT25); assay: Inhibition of MRCKalpha (unknown origin) at 100 nM
[5] = target: Serine/threonine-protein kinase MRCK beta (Homo sapiens) (UniProt Q9Y5S2); assay: Inhibition of MRCKbeta (unknown origin) at 100 nM
[6] = target: Serine/threonine-protein kinase 24 (Homo sapiens) (UniProt Q9Y6E0); assay: Inhibition of MST3 (unknown origin) at 100 nM
[7] = target: Serine/threonine-protein kinase NLK (Homo sapiens) (UniProt Q9UBE8); assay: Inhibition of NLK (unknown origin) at 100 nM
Sequence of Serine/threonine-protein kinase NLK (Homo sapiens) (Q9UBE8 whole entry): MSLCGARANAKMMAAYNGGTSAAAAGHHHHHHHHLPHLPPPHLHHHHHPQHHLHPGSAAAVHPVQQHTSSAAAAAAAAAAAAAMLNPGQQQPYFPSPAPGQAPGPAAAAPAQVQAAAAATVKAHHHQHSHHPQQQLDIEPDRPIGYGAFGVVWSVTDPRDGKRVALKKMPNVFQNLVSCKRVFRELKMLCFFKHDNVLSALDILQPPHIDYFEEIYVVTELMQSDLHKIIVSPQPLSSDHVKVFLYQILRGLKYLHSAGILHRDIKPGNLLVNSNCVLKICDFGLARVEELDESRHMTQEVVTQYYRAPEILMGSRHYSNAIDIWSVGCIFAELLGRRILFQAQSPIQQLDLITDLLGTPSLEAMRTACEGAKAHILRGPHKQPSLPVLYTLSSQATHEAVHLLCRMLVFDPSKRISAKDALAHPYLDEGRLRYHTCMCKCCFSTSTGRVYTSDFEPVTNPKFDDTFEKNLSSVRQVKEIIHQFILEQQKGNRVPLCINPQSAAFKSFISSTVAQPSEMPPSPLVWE

[8] = target: Serine/threonine-protein kinase PAK 6 (Homo sapiens) (UniProt Q9NQU5); assay: Inhibition of PAK6 (unknown origin) at 100 nM
[9] = target: Phosphatidylinositol 3-kinase catalytic subunit type 3 (Homo sapiens) (UniProt Q8NEB9); assay: Inhibition of PI3KC3/hVPS34 (unknown origin) at 100 nM
[10] = target: Protein kinase C alpha type (Homo sapiens) (UniProt P17252); assay: Inhibition of PKCalpha (unknown origin) at 100 nM
[11] = target: Protein kinase C zeta type (Homo sapiens) (UniProt Q05513); assay: Inhibition of PKCzeta (unknown origin) at 100 nM
[12] = target: Serine/threonine-protein kinase D3 (Homo sapiens) (UniProt O94806); assay: Inhibition of PKD3 (unknown origin) at 100 nM
[13] = target: cGMP-dependent protein kinase 2 (Homo sapiens) (UniProt Q13237); assay: Inhibition of PKG2 (unknown origin) at 100 nM
[14] = target: Serine/threonine-protein kinase PLK1 (Homo sapiens) (UniProt P53350); assay: Inhibition of PLK1 (unknown origin) at 100 nM
Sequence of Serine/threonine-protein kinase PLK1 (Homo sapiens) (P53350 whole entry): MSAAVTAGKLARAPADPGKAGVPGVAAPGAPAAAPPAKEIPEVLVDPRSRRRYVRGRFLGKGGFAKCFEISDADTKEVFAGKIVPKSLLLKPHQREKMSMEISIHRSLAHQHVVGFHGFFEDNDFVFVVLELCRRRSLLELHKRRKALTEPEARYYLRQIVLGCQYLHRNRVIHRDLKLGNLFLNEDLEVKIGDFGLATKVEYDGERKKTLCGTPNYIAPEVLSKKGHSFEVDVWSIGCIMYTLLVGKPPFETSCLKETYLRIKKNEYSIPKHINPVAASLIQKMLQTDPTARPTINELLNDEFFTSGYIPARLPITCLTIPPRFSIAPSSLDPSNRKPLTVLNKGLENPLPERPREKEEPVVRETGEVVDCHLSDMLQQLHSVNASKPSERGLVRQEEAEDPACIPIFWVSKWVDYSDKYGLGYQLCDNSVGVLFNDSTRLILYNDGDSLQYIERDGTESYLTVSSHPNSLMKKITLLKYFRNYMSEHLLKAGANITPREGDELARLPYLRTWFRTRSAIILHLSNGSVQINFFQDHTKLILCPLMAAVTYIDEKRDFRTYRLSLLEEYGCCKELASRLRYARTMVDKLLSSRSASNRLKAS

[15] = target: MAP kinase-activated protein kinase 5 (Homo sapiens) (UniProt Q8IW41); assay: Inhibition of PRAK (unknown origin) at 100 nM
Sequence of MAP kinase-activated protein kinase 5 (Homo sapiens) (Q8IW41 whole entry, canonical isoform): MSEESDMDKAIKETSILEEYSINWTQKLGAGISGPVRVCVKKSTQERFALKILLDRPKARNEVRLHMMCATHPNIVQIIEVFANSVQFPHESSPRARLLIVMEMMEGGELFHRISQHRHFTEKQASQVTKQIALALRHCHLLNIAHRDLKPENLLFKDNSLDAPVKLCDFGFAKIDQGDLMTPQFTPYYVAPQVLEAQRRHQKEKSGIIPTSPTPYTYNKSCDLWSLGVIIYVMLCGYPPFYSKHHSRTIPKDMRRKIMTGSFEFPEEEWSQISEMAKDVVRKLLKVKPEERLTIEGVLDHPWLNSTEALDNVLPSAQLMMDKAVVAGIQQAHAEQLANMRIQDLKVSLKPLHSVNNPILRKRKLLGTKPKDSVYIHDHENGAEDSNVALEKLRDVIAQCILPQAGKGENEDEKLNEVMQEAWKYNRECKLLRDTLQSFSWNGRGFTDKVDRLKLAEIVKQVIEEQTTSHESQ

[16] = target: Phosphorylase b kinase gamma catalytic chain, liver/testis isoform (Homo sapiens) (UniProt P15735); assay: Inhibition of PHKgamma2 (unknown origin) at 100 nM
[17] = target: Rho-associated protein kinase 2 (Homo sapiens) (UniProt O75116); assay: Inhibition of ROCK2 (unknown origin) at 100 nM
[18] = target: Ribosomal protein S6 kinase alpha-2 (Homo sapiens) (UniProt Q15349); assay: Inhibition of RSK3 (unknown origin) at 100 nM
Sequence of Ribosomal protein S6 kinase alpha-2 (Homo sapiens) (Q15349 whole entry): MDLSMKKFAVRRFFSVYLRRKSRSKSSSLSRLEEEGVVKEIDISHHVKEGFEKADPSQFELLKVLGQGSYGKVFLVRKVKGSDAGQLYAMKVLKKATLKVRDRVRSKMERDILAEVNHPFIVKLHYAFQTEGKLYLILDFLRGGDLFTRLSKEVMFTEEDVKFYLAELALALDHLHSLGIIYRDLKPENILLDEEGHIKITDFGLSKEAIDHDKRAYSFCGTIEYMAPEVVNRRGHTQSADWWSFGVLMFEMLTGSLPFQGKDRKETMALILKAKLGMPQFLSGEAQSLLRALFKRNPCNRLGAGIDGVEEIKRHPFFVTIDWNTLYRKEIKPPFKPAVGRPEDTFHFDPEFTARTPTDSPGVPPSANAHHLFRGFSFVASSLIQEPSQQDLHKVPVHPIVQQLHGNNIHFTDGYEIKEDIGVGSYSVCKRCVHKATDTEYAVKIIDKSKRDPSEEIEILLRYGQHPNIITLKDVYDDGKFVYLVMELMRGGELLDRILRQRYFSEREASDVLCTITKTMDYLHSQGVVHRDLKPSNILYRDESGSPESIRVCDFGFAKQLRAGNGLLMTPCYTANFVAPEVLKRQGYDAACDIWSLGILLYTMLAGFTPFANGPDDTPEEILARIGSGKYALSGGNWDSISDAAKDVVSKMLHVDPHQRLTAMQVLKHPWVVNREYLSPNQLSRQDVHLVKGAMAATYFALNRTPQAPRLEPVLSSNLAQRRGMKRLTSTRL

[19] = target: Tyrosine-protein kinase Tec (Homo sapiens) (UniProt P42680); assay: Inhibition of TEC (unknown origin) at 100 nM
[20] = target: Testis-specific serine/threonine-protein kinase 1 (Homo sapiens) (UniProt Q9BXA7); assay: Inhibition of TSSK1 (unknown origin) at 100 nM
[21] = target: Testis-specific serine/threonine-protein kinase 2 (Homo sapiens) (UniProt Q96PF2); assay: Inhibition of TSSK2 (unknown origin) at 100 nM
[22] = target: Dual specificity protein kinase TTK (Homo sapiens) (UniProt P33981); assay: Inhibition of TTK (unknown origin) at 100 nM
[23] = target: Tyrosine-protein kinase TXK (Homo sapiens) (UniProt P42681); assay: Inhibition of TXK (unknown origin) at 100 nM
[24] = target: NUAK family SNF1-like kinase 1 (Homo sapiens) (UniProt O60285); assay: Inhibition of ARK5 (unknown origin) at 100 nM
Sequence of NUAK family SNF1-like kinase 1 (Homo sapiens) (O60285 whole entry): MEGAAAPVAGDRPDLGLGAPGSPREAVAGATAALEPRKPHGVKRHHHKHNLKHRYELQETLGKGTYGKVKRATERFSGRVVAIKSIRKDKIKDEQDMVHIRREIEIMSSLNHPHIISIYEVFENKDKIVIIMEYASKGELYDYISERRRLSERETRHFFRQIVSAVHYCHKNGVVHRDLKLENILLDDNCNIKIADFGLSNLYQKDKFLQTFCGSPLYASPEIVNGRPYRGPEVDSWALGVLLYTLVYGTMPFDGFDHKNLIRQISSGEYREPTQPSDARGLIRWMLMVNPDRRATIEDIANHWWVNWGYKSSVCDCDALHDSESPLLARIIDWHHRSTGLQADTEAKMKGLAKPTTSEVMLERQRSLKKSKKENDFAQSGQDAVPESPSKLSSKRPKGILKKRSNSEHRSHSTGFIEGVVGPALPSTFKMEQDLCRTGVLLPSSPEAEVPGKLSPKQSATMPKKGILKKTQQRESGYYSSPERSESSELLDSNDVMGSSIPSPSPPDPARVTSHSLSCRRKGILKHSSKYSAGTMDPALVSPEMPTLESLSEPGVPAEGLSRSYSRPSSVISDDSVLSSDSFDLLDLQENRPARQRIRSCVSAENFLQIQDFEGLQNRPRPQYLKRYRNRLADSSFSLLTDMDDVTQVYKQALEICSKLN

[25] = target: Serine/threonine-protein kinase B-raf (Homo sapiens) (UniProt P15056); assay: Inhibition of B-Raf (unknown origin) at 100 nM
[26] = target: Bone morphogenetic protein receptor type-1A (Homo sapiens) (UniProt P36894); assay: Inhibition of BMPR1A (unknown origin) at 100 nM
[27] = target: Tyrosine-protein kinase Blk (Homo sapiens) (UniProt P51451); assay: Inhibition of BLK (unknown origin) at 100 nM
Sequence of Tyrosine-protein kinase Blk (Homo sapiens) (P51451 2-505 limits assumed): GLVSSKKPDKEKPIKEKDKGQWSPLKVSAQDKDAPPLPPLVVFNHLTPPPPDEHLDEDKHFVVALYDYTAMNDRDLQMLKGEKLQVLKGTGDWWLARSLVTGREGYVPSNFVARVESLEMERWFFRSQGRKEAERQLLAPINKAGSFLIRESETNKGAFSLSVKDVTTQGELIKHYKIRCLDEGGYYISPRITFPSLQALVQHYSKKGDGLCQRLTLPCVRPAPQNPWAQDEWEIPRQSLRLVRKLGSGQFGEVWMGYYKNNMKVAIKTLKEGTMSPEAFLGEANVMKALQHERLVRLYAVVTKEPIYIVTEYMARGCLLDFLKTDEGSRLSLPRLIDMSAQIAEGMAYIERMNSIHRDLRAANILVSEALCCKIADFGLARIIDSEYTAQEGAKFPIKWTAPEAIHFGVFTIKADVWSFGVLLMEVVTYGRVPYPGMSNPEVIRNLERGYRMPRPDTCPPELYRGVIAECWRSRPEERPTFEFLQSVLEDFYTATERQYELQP

[28] = target: Calcium/calmodulin-dependent protein kinase kinase 2 (Homo sapiens) (UniProt Q96RR4); assay: Inhibition of CAMKK2 (unknown origin) at 100 nM
[29] = target: Dual specificity protein kinase CLK2 (Homo sapiens) (UniProt P49760); assay: Inhibition of CLK2 (unknown origin) at 100 nM
[30] = target: Dual specificity protein kinase CLK3 (Homo sapiens) (UniProt P49761); assay: Inhibition of CLK3 (unknown origin) at 100 nM
[31] = target: Dual specificity protein kinase CLK4 (Homo sapiens) (UniProt Q9HAZ1); assay: Inhibition of CLK4 (unknown origin) at 100 nM
[32] = target: DNA-dependent protein kinase catalytic subunit (Homo sapiens) (UniProt P78527); assay: Inhibition of DNA-PK (unknown origin) at 100 nM
[33] = target: Ephrin type-A receptor 3 (Homo sapiens) (UniProt P29320); assay: Inhibition of EPHA3 (unknown origin) at 100 nM
Sequence of Ephrin type-A receptor 3 (Homo sapiens) (P29320 whole entry): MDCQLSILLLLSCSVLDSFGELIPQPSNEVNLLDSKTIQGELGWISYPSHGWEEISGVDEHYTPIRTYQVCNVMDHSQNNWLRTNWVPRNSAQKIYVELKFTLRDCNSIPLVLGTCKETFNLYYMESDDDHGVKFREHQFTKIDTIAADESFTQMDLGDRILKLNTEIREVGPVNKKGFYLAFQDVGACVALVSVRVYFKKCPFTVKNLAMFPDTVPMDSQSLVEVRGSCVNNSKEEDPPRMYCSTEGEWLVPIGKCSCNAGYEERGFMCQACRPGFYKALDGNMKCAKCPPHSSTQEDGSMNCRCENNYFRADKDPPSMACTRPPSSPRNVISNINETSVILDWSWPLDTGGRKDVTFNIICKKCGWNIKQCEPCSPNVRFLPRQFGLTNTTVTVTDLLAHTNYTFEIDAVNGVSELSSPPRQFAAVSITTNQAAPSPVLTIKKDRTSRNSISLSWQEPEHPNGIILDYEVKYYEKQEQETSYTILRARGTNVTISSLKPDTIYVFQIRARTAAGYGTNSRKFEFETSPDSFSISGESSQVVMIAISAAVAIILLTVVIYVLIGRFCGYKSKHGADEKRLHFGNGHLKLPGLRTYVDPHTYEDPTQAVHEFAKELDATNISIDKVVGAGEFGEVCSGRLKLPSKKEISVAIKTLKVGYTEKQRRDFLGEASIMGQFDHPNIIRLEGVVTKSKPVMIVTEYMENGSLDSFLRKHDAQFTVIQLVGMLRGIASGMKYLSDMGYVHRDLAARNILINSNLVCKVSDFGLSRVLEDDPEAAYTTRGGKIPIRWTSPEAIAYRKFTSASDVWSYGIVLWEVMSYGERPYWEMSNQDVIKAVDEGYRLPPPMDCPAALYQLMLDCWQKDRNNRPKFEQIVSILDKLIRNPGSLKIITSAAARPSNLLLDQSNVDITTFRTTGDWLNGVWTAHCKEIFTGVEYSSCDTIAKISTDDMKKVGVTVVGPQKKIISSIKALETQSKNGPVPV

[34] = target: Receptor tyrosine-protein kinase erbB-2 (Homo sapiens) (UniProt P04626); assay: Inhibition of ERBB2 (unknown origin) at 100 nM
[35] = target: Tyrosine-protein kinase Fer (Homo sapiens) (UniProt P16591); assay: Inhibition of FER (unknown origin) at 100 nM
[36] = target: Tyrosine-protein kinase Fgr (Homo sapiens) (UniProt P09769); assay: Inhibition of FGR (unknown origin) at 100 nM
[37] = target: Vascular endothelial growth factor receptor 1 (Homo sapiens) (UniProt P17948); assay: Inhibition of FLT1 (unknown origin) at 100 nM
[38] = test system: Receptor-type tyrosine-protein kinase FLT3 (Homo sapiens), P36888 [D835Y]; assay: Inhibition of FLT3 D835Y mutant (unknown origin) at 100 nM
[39] = target: Tyrosine-protein kinase HCK (Homo sapiens) (UniProt P08631); assay: Inhibition of HCK (unknown origin) at 100 nM
Sequence of Tyrosine-protein kinase HCK (Homo sapiens) (P08631 2-526 limits assumed): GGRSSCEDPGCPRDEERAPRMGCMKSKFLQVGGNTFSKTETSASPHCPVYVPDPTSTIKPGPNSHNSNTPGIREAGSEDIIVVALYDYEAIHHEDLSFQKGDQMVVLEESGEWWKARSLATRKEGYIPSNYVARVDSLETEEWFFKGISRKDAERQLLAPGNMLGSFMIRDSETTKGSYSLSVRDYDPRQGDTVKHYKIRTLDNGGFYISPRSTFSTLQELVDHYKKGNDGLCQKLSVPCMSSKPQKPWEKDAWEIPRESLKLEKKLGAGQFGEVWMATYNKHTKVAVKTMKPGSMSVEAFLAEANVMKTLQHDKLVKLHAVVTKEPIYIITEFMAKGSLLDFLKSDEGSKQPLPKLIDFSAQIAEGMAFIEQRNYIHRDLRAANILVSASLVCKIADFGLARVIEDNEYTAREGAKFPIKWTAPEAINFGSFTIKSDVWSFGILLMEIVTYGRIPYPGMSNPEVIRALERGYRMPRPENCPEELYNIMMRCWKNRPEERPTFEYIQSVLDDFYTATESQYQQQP

[40] = test system: Mast/stem cell growth factor receptor Kit (Homo sapiens), P10721 [T670I]; assay: Inhibition of KIT T670I mutant (unknown origin) at 100 nM
[41] = target: Leukocyte tyrosine kinase receptor (Homo sapiens) (UniProt P29376); assay: Inhibition of LTK (unknown origin) at 100 nM
[42] = target: Proto-oncogene tyrosine-protein kinase Src (Homo sapiens) (UniProt P12931); assay: Inhibition of SRCN1 (unknown origin) at 100 nM

inhibition [1]: -5.3%
inhibition [2]: 49.3%
inhibition [3]: -2.3%
inhibition [4]: 1.9%
inhibition [5]: -3.9%
inhibition [6]: 0.8%
inhibition [7]: -0.6%
inhibition [8]: -0.3%
inhibition [9]: 7.4%
inhibition [10]: 7%
inhibition [11]: 7.2%
inhibition [12]: 19%
inhibition [13]: -8.9%
inhibition [14]: 4.9%
inhibition [15]: 5.7%
inhibition [16]: -2.9%
inhibition [17]: -10%
inhibition [18]: 7.4%
inhibition [19]: 0.1%
inhibition [20]: -0.5%
inhibition [21]: 4%
inhibition [22]: 4.3%
inhibition [23]: 61.5%
inhibition [24]: 11.6%
inhibition [25]: 59.3%
inhibition [26]: 16.8%
inhibition [27]: 67.7%
inhibition [28]: 1.8%
inhibition [29]: -3.6%
inhibition [30]: 3.3%
inhibition [31]: 13.3%
inhibition [32]: 7.5%
inhibition [33]: 4.2%
inhibition [34]: 57.2%
inhibition [35]: 6.9%
inhibition [36]: 83.7%
inhibition [37]: 71.8%
inhibition [38]: 24.8%
inhibition [39]: 65.6%
inhibition [40]: 17.9%
inhibition [41]: 32%
inhibition [42]: 47.2%
Structure (SMILES): CC1(C)OCc2c(Nc3n[nH]c4ccccc34)nc(-c3cn[nH]c3)nc21
